{
  "source": "patent US20230147835A1",
  "about": "“METHODS OF TREATING SYSTEMIC SCLEROSIS” (Horizon Therapeutics Ireland DAC, priority 2020, published 2023)",
  "key": {"[1]": {"tested_on": "hypertension or diabetes-related cardiac hypertrophy, fibrosis and heart failure", "assay": "Models of hypertension or diabetes-related cardiac hypertrophy, fibrosis and heart failure", "conditions": "in vivo", "source_text": "(§1) All these pathological events can be observed in SSc patients at different levels and further support the use of Compound 1 in these patients."}, "[2]": {"tested_on": "models of thrombosis", "assay": "Acute models of coagulation and arterial thrombosis (rats)", "assay_type": "in vivo", "conditions": "two models in rats", "source_text": "as §1"}, "[3]": {"assay": "Phase 1 studies", "assay_type": "in vivo", "conditions": "multiple Phase 1 studies", "source_text": "See, Khanna, et al. (2007) Curr Rheumatol Rep. 9:151-7, which is incorporated herein by reference for all purposes."}, "[4]": {"tested_on": "tight skin (Tsk-1) mice", "assay": "Tight skin (Tsk-1) mice skin fibrosis model", "assay_type": "in vivo, mouse", "conditions": "30 mg/kg/day; reference imatinib", "source_text": "(§2) Two models of skin fibrosis were used to evaluate the effect of Compound 1 in comparison with imatinib mesylate, used as a reference."}, "[5]": {"tested_on": "bleomycin-induced skin fibrosis", "assay": "Bleomycin-induced skin fibrosis model, therapeutic protocol", "assay_type": "in vivo, mouse", "conditions": "50 mg/kg/day", "source_text": "as §2"}, "[6]": {"tested_on": "hypertension-induced or nephrotoxicity-induced renal failure", "assay": "Models of hypertension-induced or nephrotoxicity-induced renal failure", "conditions": "in vivo", "source_text": "as §1"}, "[7]": {"tested_on": "patients with early dcSSc", "assay": "Phase 2 8-week double-blind placebo-controlled study with 16-week open-label extension", "assay_type": "in vivo, human", "source_text": "The primary end point was safety during the double-blind phase of the trial. Exploratory end points included the identification of an LPA-induced gene signature in patients' skin.\nSeventeen of 32 patients were randomly assigned to receive placebo and 15 to receive Compound 1. Thirty patients participated in the open-label extension study. […] At week 8, the reduction in MRSS was numerically greater in the Compound 1 group than in the placebo group (mean±SD change −3.57±4.18 versus −2.76±4.85; treatment effect −1.2 [95% confidence interval −4.37, 2.02])."}, "[8]": {"target": "lysophosphatidic acid receptor 1 (LPAR1) (Homo sapiens, UniProt Q92633)", "sequence (Q92633 whole entry, species assumed)": "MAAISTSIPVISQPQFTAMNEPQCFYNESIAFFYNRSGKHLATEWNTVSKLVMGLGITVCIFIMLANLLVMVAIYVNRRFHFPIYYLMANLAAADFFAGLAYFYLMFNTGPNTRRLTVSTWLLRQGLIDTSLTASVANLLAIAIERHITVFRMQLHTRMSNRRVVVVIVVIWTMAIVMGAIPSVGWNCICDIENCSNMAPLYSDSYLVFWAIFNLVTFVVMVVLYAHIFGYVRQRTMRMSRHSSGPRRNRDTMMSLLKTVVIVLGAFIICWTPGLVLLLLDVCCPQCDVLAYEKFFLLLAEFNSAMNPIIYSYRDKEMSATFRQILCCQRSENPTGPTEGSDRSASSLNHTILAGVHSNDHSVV", "conditions": "cited from earlier work"}, "[9]": {"tested_on": "models of thrombosis", "assay": "Model of thrombosis (mouse)", "assay_type": "in vivo", "conditions": "one model in mouse", "source_text": "as §1"}, "[10]": {"tested_on": "presensitized mice treated with ovalbumin", "assay": "Broncho-alveolar lavage of presensitized mice treated with ovalbumin", "conditions": "mouse, in vivo"}, "[11]": {"conditions": "24-weeks of continuous treatment"}, "[12]": {"conditions": "Subjects switched from placebo to Compound 1 (16-week open label extension)"}, "[13]": {"conditions": "initial Compound 1 group, treatment up to 24 weeks, versus baseline"}},
  "note": "Entries after “also recorded” stand apart in the source; their conditions may differ.",
  "data": [
    {"smiles": "COc1ccc(C(=O)NC2(C(=O)O)Cc3ccccc3C2)cc1OCCc1cccc(C)c1", "note": "[Compound 1, 2-(4-methoxy-3-(3-methylphenethoxy)benzamido)-2,3-dihydro-1H-indene-2-carboxylic acid]", "values": [
      {"measurement": "arterial stiffness", "setting": "[1]", "result": "positive effect"},
      {"measurement": "blood pressure", "setting": "[1]", "result": "mostly unchanged"},
      {"measurement": "cardiac function and structure", "setting": "[1]", "result": "beneficial effect"},
      {"measurement": "cardiac systolic and diastolic function", "setting": "[1]", "result": "improves"},
      {"measurement": "heart fibrosis", "setting": "[1]", "result": "inhibits fibrosis"},
      {"measurement": "antithrombotic activity", "setting": "[2]", "result": "moderate but significant antithrombotic activity; also recorded: demonstrated antithrombotic activity"},
      {"measurement": "safety and tolerability", "setting": "[3]", "result": "safe and well tolerated"},
      {"measurement": "progression of skin fibrosis", "setting": "[4]", "result": "inhibit the progression of skin fibrosis at a similar level than imatinib"},
      {"measurement": "collagen content in mouse skin", "setting": "[5]; therapeutic protocol", "result": "able to reverse"},
      {"measurement": "dermal thickness in mouse skin", "setting": "[5]; therapeutic protocol", "result": "able to reverse"},
      {"measurement": "myofibroblast differentiation in mouse skin", "setting": "[5]; therapeutic protocol", "result": "able to reverse"},
      {"measurement": "effect on these markers compared with imatinib", "setting": "[5]; reference imatinib mesylate", "result": "comparable with the effects of imatinib"},
      {"measurement": "kidney fibrosis", "setting": "[6]", "result": "inhibits fibrosis"},
      {"measurement": "kidney function", "setting": "[6]", "result": "improved kidney function"},
      {"measurement": "Median Decrease in mRSS", "setting": "[7]; [11]", "result": "−7.5"},
      {"measurement": "Responder Rate", "setting": "[7]; [11]", "result": 78.6, "unit": "%"},
      {"measurement": "LPA-related genes, biomarker analysis of skin biopsies", "setting": "[7]; FIG. 1", "result": "reductions"},
      {"measurement": "Modified Rodnan Skin Score (mRSS)", "setting": "[7]; Phase 2 double-blind phase and open label extension", "result": "improvement"},
      {"measurement": "Median Decrease in mRSS", "setting": "[7]; [12]", "result": "−7.0"},
      {"measurement": "Responder Rate", "setting": "[7]; [12]", "result": 69.2, "unit": "%"},
      {"measurement": "most frequent adverse events", "setting": "[7]; blinded phase", "result": "headache, diarrhea, nausea, and falling"},
      {"measurement": "MRSS during the study", "setting": "[7]; difference was not significant", "result": "improved"},
      {"measurement": "tolerability in patients with dcSSc", "setting": "[7]; in vivo", "result": "well tolerated"},
      {"measurement": "disease biomarker COMP", "setting": "[7]; [13]", "result": "numerical improvement versus baseline"},
      {"measurement": "disease biomarker TSP1", "setting": "[7]; [13]", "result": "numerical improvement versus baseline"},
      {"measurement": "safety profile", "setting": "[7]; open-label extension", "result": "acceptable"},
      {"measurement": "reduction of LPA-related genes in skin samples versus placebo", "setting": "[7]; week 8", "result": "greater reduction"},
      {"measurement": "change in MRSS (mean±SD)", "setting": "[7]; week 8, double-blind phase", "result": "−3.57±4.18"},
      {"measurement": "treatment effect on MRSS versus placebo", "setting": "[7]; week 8, 95% confidence interval −4.37, 2.02", "result": "−1.2"},
      {"measurement": "HAQ-DI", "setting": "[7]; week 24", "result": "clinically significant improvement"},
      {"measurement": "antagonist of lysophosphatidic acid receptor 1 (LPAR1)", "setting": "[8]", "result": "potent antagonist"},
      {"measurement": "antithrombotic activity", "setting": "[9]", "result": "demonstrated antithrombotic activity"},
      {"measurement": "accumulation of leukocytes and total inflammatory cells in broncho-alveolar lavage", "setting": "[10]", "result": "significant inhibitory effect"},
      {"measurement": "inflammation in a model of lung injury with predominant Th2-type response", "setting": "[10]", "result": "reduces inflammation"}
    ]}
  ]
}
